Our source for the EC50 values is patent publication US10562893B2, “Benzimidazoles derivatives as Tec kinases family inhibitors” (GB005, Inc., priority 2015, dated 2020).

One assay relates to Human PBMCs. As to the kind of experiment: CD3/CD28 mediated PBMC proliferation assay. In kind it is cell-based. Conditions: proliferation of human PBMCs stimulated with anti-CD3 and anti-CD28, 72 hours, Cell Titer-Glo. The gist of the method: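 PBMCs pre-treated 30 min with compound, then stimulated on plate-bound anti-CD3 (coated at 5 μg/mL) plus soluble anti-CD28 (2 μg/mL final) for 72 h at 37 °C. Proliferation measured as ATP by CellTiter-Glo; EC50 versus vehicle controls from dose-response curves.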
A general note: Cellular ATP, detected with luciferase, serves as a proxy for viable cell number.

The next assay deals with Tec kinase (Homo sapiens (Human), UniProt P42680). Put plainly: Tec kinase inhibition assay. In kind it is biochemical. Conditions: micro-fluidic detection, 3 hours at 25° C. Here is the method: (§1) The in vitro kinase assays were performed at Nanosyn utilizing micro-fluidic detection technology. The test compounds were serially pre-diluted in DMSO and added, by the acoustic dispensing (Labcyte® 550), directly to 384well assay plates into 10 uL of a buffer with enzyme comprising: 100 mM HEPES, pH7.5, 5 mM MgCl2, 0.1% bovine serum albumin, 1 mM DTT, 0.01% Triton X-100 and the enzyme. Final DMSO concentration was maintained at 1% in all samples, including the controls. The reactions were initiated by addition of ATP (to the specified concentration) and the fluorescently labeled peptide substrate to a final concentration of 1 uM, and incubated for 3 hours at 25° C. Following incubation, the reactions were quenched by addition of 40 μL of termination buffer (100 mM HEPES, pH7.5, 0.01% Triton X-100, 50 mM EDTA). Terminated plates were analyzed using Caliper LabChip® 3000 microfluidic electrophoresis instrument (Caliper Life Sciences/Perkin Elmer). The enzymatic modification of the peptide substrate (phosphorylation) results in a change of net charge enabling electrophoretic separation of product from substrate. As substrate and product are separated by electrophoresis, two peaks of fluorescence are observed. Change in the relative fluorescence intensity of the substrate and product peaks was the parameter measured, reflecting enzyme activity. In the presence of inhibitor, the ratio between product and substrate is altered: signal of the product decreases, while the signal of the substrate increases. Activity in each test sample was determined as the product to sum ratio (PSR): PI(S+P), where P is the peak height of the product and S is the peak height of the FAM-cAMP substrate. For each compound, enzyme activity was measured at 12 concentrations spaced by 3× dilution intervals. Negative control samples (0%-inhibition in the absence of inhibitor, DMSO only) and positive control samples (100%-inhibition, in the absence of enzyme or in the presence of control inhibitor) were assembled in replicates of four and were used to calculate %-inhibition values in the presence of compounds. Percent inhibition (Pinh) was determined using the following equation: Pinh=(PSR0%−PSRinh)/(PSR0%−PSR100%)*100, where PSRinh is the product sum ratio in the presence of inhibitor, PSR0% is the product sum ratio in the absence of inhibitor and PSR100% is the product sum ratio in 100%-inhibition control samples. To determine IC50 values, the inhibition curves (Pinh versus inhibitor concentration) were fitted by 4 parameter sigmoid dose-response model using XLfit software (IDBS).
Sequence of Tec kinase (P42680 whole entry): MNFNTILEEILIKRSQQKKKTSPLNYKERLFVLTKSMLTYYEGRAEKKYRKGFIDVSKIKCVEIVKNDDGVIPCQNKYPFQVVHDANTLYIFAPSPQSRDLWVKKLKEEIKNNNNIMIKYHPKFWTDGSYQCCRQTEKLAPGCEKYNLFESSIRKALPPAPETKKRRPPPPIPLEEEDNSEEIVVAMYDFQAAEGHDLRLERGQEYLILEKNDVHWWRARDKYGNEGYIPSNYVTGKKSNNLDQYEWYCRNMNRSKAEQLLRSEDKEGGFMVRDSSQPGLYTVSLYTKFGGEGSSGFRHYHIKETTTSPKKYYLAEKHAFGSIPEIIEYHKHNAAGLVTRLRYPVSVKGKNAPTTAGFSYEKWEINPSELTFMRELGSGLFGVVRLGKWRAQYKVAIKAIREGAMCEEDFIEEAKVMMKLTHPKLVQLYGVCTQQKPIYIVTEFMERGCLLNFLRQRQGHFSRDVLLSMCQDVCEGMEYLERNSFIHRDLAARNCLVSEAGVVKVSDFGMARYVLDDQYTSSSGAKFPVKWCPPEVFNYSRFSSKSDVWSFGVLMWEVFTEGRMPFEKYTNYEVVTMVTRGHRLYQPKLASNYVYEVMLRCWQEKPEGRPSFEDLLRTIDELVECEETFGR

The target in a further assay is ITK (Homo sapiens (Human), UniProt Q08881). Put plainly: ITK kinase inhibition assay. It counts as biochemical. As to conditions: micro-fluidic detection, 3 hours at 25° C. Here is the method:
as §1, with “384 well” for “384well”, “(PSR):P/(S+P),” for “(PSR): PI(S+P),”

Sequence of ITK (Q08881 whole entry): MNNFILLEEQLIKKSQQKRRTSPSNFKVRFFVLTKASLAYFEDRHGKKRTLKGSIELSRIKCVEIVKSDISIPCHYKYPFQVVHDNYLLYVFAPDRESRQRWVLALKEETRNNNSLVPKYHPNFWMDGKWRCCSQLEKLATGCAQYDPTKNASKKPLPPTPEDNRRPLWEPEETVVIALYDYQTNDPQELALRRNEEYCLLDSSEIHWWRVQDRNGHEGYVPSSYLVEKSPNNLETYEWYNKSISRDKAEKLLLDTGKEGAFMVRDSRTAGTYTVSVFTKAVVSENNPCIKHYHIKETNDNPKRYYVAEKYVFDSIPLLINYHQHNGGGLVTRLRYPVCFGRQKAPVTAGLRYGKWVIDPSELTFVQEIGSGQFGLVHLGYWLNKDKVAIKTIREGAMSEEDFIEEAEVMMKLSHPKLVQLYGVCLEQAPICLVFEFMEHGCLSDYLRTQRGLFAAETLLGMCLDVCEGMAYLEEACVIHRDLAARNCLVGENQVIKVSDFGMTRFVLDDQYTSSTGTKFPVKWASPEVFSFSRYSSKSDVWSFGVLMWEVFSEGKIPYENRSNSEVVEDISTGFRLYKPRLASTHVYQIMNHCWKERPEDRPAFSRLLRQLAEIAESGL

For the molecule `C=CC(=O)Nc1cccc(-n2c(NC(=O)c3ccno3)nc3cc(CN[C@@H](C)C(C)(C)C)ccc32)c1` [Compound 38], the EC50 (in general, the concentration that produces a half-maximal response) with Human PBMCs was 10 to 100 nM; at Tec kinase, 10 to 100 nM; at ITK it was less than 10 nM.
In the case of `C=CC(=O)Nc1cccc(-n2c(NC(=O)c3ccc(C(F)F)s3)nc3cc(CN[C@@H](C)C(C)(C)C)ccc32)c1` [Compound 2], the EC50 in the assay on Human PBMCs is 10 to 100 nM; at Tec kinase, 10 to 100 nM; at ITK it was less than 10 nM.
As for `C=CC(=O)Nc1cccc(-n2c(NC(=O)c3ccc(-c4cnco4)s3)nc3cc(CN[C@@H](C)C(C)(C)C)ccc32)c1` [Compound 25], the EC50 in the assay on Human PBMCs, at Tec kinase and on ITK was less than 10 nM each time.
Regarding `C=CC(=O)Nc1cccc(-n2c(NC(=O)c3ccnn3C)nc3cc(CN[C@@H](C)C(C)(C)C)ccc32)c1` [Compound 28], the figures for the concentration for a half-maximal effect (EC50) in the assay with Human PBMCs, on Tec kinase and on ITK were 10 to 100 nM, 10 to 100 nM and less than 10 nM, respectively.
In the case of `C=CC(=O)Nc1cccc(-n2c(NC(=O)c3cccc(C#N)c3)nc3cc(CN[C@@H](C)C(C)(C)C)ccc32)c1` [Compound 9], the EC50 with Human PBMCs was 10 to 100 nM; at Tec kinase, 10 to 100 nM; on ITK, less than 10 nM.
